Measurements: patent publication US20060189565A1, “Pharmaceutical compositions of ganciclovir” (priority 2002, published 2006)

Columns and labels:
[1] = Moisture uptake by ganciclovir in an open Petri dish; assay type: physicochemical; conditions: ganciclovir containing 1.99% water, 25° C., 60% RH
Experimental: Different formulations containing variable percentages of water were subjected to stability and moisture uptake studies. For example, ganciclovir containing 1.99% water content was subjected to moisture uptake at 25° C. and 60% relative humidity (RH) in an open Petri dish and the increase in weight was monitored.

[2] = Accelerated stability testing of packaged final product; assay type: physicochemical; conditions: 40° C., 75% RH
Experimental: Accelerated stability testing was conducted by varying the water content of ganciclovir between 1.99% w/w and 2.54% w/w. The packages of final product were stored at 40° C. and 75% RH for a period of three months. At predetermined intervals, some of the packages were opened and analyzed to determine the amount of active ingredient, related impurities (RS), and water content present in the formulation.

[3] = tested on: cytomegalovirus (CMV); conditions: human clinical studies; cited from earlier work
[4] = tested on: herpes simplex virus (HSV); conditions: human clinical studies; cited from earlier work

Nc1nc2c(ncn2COC(CO)CO)c(=O)[nH]1 [ganciclovir, 9-(1,3-dihydroxy-2-propoxymethyl) guanine]
Increase in moisture during storage [1]: no appreciable increase in moisture during storage | Moisture gain ([1]; 2.0 hrs): 0.12 % w/w | Moisture gain ([1]; 4.0 hrs): 0.38 % w/w | Moisture gain ([1]; 8.0 hrs): 0.46 % w/w | Moisture gain ([1]; 48.0 hrs): 0.49 % w/w | Moisture gain ([1]; 168.0 hrs (1 week)): 0.50 % w/w | initial purity retained ([2]; after one month): at least 97% | purity lost ([2]; after one month): less than about three percent | initial purity retained ([2]; after three months): at least 87% | purity lost ([2]; after three months): less than about five percent | initial purity retained ([2]; after two months): at least 96% | purity lost ([2]; after two months): less than about four percent | activity against cytomegalovirus (CMV) [3]: active | activity against herpes simplex virus (HSV) [4]: active
